Laboratory results from US5633381A, “(Z,Z), (Z,E) and (E,Z) isomers of substituted bis(phenylmethylene)cycloketones” (Berlex Laboratories, Inc., priority 1994, dated 1997).
Counter-ions that a name gives are not always drawn.

How the values were obtained:
Assay type in all cases: biochemical
Factor Xa (HFXa) = Factor Xa (HFXa) (Homo sapiens, UniProt P00742); assay: Assay of free Factor Xa: initial rate of cleavage of peptide p-nitroanilide S-2222; settings: free FXa, Tris-HCl pH 7.5, 164 μM S-2222, 3 nM HFXa, room temperature
Chain of Factor Xa (HFXa) (P00742 235-488 limits assumed): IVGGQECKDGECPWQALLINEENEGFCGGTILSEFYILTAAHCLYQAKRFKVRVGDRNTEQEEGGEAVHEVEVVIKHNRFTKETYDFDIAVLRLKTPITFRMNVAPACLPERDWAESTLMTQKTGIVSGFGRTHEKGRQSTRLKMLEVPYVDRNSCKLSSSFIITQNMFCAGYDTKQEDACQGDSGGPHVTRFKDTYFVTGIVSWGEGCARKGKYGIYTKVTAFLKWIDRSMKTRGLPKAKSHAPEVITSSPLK
Chain of Factor Xa (HFXa) (P00742 41-179 limits assumed): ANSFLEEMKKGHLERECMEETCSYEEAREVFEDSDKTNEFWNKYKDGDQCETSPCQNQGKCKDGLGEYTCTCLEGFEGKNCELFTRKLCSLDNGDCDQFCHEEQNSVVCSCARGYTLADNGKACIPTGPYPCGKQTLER
Protocol: (§1) There are a number of tests which illustrate the activity of the compounds of this invention. Due to the light sensitivity of the test Compounds, experiments were performed under minimally lighted conditions. The tests follow. ASSAY OF FREE FACTOR XA AND THROMBIN Activity of Factor Xa and thrombin (IIa) were determined as the initial rate of cleavage of peptide p-nitroanilide by the enzymes. […] Initial rate of the first 2 minutes was used for calculation of the enzyme activities.

thrombin (IIa) = thrombin (IIa) (Homo sapiens, UniProt P00734); assay: Assay of free thrombin (IIa): initial rate of cleavage of peptide p-nitroanilide S2302; settings: Tris-HCl pH 7.5, 300 μM S2302, 20 nM thrombin, room temperature
Protocol: as §1

[1] = tested on: citrated plasma clotting (activated partial thromboplastin time); assay: Coagulation assay: activated partial thromboplastin time (APTT); settings: human plasma, Actin Reagent, 37° C.
Protocol: (§2) There are a number of tests which illustrate the activity of the compounds of this invention. Due to the light sensitivity of the test Compounds, experiments were performed under minimally lighted conditions. The tests follow.
(§3) Two coagulation assays, the activated partial thromboplastin time (APTT) and the prothrombin time (PT), were used to evaluate the compounds. An Electra 900C coagulometer with the software package was used. The Actin Reagent (APTT) or Rabbit Brain Thromboplastin (PT) is added to citrated plasma sample in equal volumes (100 μL each) and allowed to incubate for 5 min. at 37° C. […] (100 μL) is added and time to clot noted. Dilution series for compounds undergoing testing were made in human plasma prior to assay.

[2] = tested on: citrated plasma clotting (prothrombin time); assay: Coagulation assay: prothrombin time (PT); settings: human plasma, Rabbit Brain Thromboplastin, 37° C.
Protocol: as §2, §3

human FXa = biological target: T1, human FXa (Homo sapiens, UniProt P00742); assay: In vitro plasma matrix effect on anti-FX activity (compounds diluted in 100% rat plasma); settings: compound in 100% rat plasma, 30 min incubation, S2222, pH 7.5, room temperature, read-out: Ki (Xa)
T1 construct: 6 nM of human FXa; purchased Enzyme Research Lab; USA
T1 sequence (P00742 235-488 limits assumed): as the sequence (P00742 235-488 limits assumed) above
T1 sequence (P00742 41-179 limits assumed): as the sequence (P00742 41-179 limits assumed) above
Protocol: as §2
IN VITRO PLASMA MATRIX EFFECT ON ANTI-FX ACTIVITY:
Compound stock solutions (10 mM in DMSO) were diluted in 100% rat plasma in a series of 1 to 3 dilutions in the following concentration ranges: (1) from 300 μM to 1.23 μM; (2) from 10 μM to 0.041 μM; (3) from 100 μM to 0.412 μM. After 30 minutes incubation (in dark) at room temperature, 20 μL of diluted compounds (in rat plasma) were added in duplicate to a 96-well flat-bottom microtiter plate (Dynatech Laboratories, USA). Thirty microliter of assay buffer containing 50 mM Tris HCl, pH 7.5, […], and 0.1% polyethylene glycol 6000 was added to each sample well followed by 100 ul of 6 nM of human FXa (in assay buffer) (Enzyme Research Lab. USA). The plate was mixed in a plate shaker for about 30 seconds. The reaction was started by the addition of 50 ul of 656 uM of chromogenic substrate S2222 in assay buffer (Pharmacia Hepar Inc. USA). FXa activity was measured at […] at room temperature for five minutes at 10 seconds interval in a THERMOmax microtiter plate reader (Molecular Devices). An internal standard was assayed in parallel as control. Initial rate as mOD/min was determined using OD readings in the first two minutes of the reaction. IC50 values were determined with a 4-parameter curve fit program provided by the Molecular Devices' software, SOFTmax 2.32. Ki values were then calculated with the following equation: Ki=IC50 /(1+[S]/Km). […]

Ki (Factor Xa (HFXa)) [nM]	Ki (thrombin (IIa)) [nM]	Ki (human FXa) [nM]	SMILES	APTT: dose of compound required to produce a 2 fold increase in clot time [1] [µg/mL]	PT: dose of compound required to produce a 2 fold increase in clot time [2] [µg/mL]
16500 ± 800	6200 ± 530	27000 ± 2600	N=C(N)c1ccc(/C=C2\CCCC/C(=C\c3ccc(C(=N)N)cc3)C2=O)cc1 [EX. 1 E,E, E,E-1,3-bis[(4'-(amino(imino)methyl)phenyl)methylene]-2-oxocycloheptane, hydrochloride]	17.5	> 30
201 ± 57	132 ± 2	210 ± 34	N=C(N)c1ccc(/C=C2/CCCC/C(=C\c3ccc(C(=N)N)cc3)C2=O)cc1 [EX. 2 Z,E, Z,E-1,3-bis[(4'-(amino(imino)methyl)phenyl)methylene]-2-oxocycloheptane, trifluoroacetate]	1.6	3.2
1.12 ± 0.28	525	3.45 ± 0.07	N=C(N)c1ccc(/C=C2/CCCC/C(=C/c3ccc(C(=N)N)cc3)C2=O)cc1 [EX. 2 Z,Z, Z,Z-1,3-bis[(4'-(amino(imino)methyl)phenyl)methylene]-2-oxocycloheptane, trifluoroacetate]	0.3	0.3
28.9 ± 7	1340 ± 370		N=C(N)c1ccc(/C=C2/CCC/C(=C/c3ccc(C(=N)N)cc3)C2=O)cc1 [EX. 4 Z,Z, Z,Z-1,3-bis[(4'-(amino(imino)methyl)phenyl)methylene]-2-oxocyclohexane, trifluoroacetate]		
> 5000	> 5000		N=C(N)c1ccc(/C=C2\CCCC/C(=C\c3ccc(C(N)=O)cc3)C2=O)cc1 [EX. 5 E,E, E,E-1-(4'-(amino(imino)methyl)phenyl)methylene-3-(4'-(aminocarbonyl)phenyl)methylene-2-oxocycloheptane, hydrochloride]		
17.8 ± 2.6	1390 ± 140		CN(C)C(=N)c1ccc(/C=C2/CCCC/C(=C/c3ccc(C(=N)N)cc3)C2=O)cc1 [EX. 10 Z,Z, Z,Z-1-(4'-(amino(imino)methyl)phenyl)methylene-3-(4'-(N',N'-dimethylamino (imino)methyl)phenyl)methylene-2-oxocycloheptane]		
29.1 ± 5.8	120000 ± 7000		N=C(N)c1ccc(/C=C2/CC(C(=O)O)C/C(=C/c3ccc(C(=N)N)cc3)C2=O)cc1 (stereo not shown) [EX. 11 Z,Z, Z,Z-3,5-bis[(4'-(amino(imino)methyl)phenyl)methylene]-4-oxocyclohexanoic acid, trifluoroacetate]		
143 ± 38	1000 ± 30		N=C(N)c1cccc(/C=C2/CCCC/C(=C\c3cccc(C(=N)N)c3)C2=O)c1 [EX. 13 Z,E, Z,E-1,3-bis[(3'-(amino(imino)methyl)phenyl)methylene]-2-oxocycloheptane, trifluoroacetate]		
111 ± 2	741 ± 161		N=C(N)c1ccc(/C=C2/CCCCCCC/C(=C/c3ccc(C(=N)N)cc3)C2=O)cc1 [EX. 14 Z,Z]		
128 ± 25	198 ± 18		N=C(N)c1ccc(/C=C2/CCCCC/C(=C\c3ccc(C(=N)N)cc3)C2=O)cc1 [EX. 15 Z,E, Z,E-1,3-bis[(4'-(amino(imino)methyl)phenyl)methylene]-2-oxocyclooctane]		
13.7 ± 5.5	619 ± 193		N=C(N)c1ccc(/C=C2/CCCCC/C(=C/c3ccc(C(=N)N)cc3)C2=O)cc1 [EX. 15 Z,Z, Z,Z-1,3-bis[(4'-(amino(imino)methyl)phenyl)methylene]-2-oxocyclooctane]		
324 ± 48	347 ± 35		N=C(N)c1ccc(/C=C2/CCCCCC/C(=C\c3ccc(C(=N)N)cc3)C2=O)cc1 [EX. 16 Z,E, Z,E-1,3-bis[(4'-(amino(imino)methyl)phenyl)methylene]-2-oxocyclononane]		

More lines, now with the values behind:

SMILES	Ki (Factor Xa (HFXa)) [nM]	Ki (thrombin (IIa)) [nM]	Ki (human FXa) [nM]	APTT: dose of compound required to produce a 2 fold increase in clot time [1] [µg/mL]	PT: dose of compound required to produce a 2 fold increase in clot time [2] [µg/mL]
N=C(N)c1ccc(/C=C2\CCC/C(=C\c3ccc(C(=N)N)cc3)C2=O)cc1 [EX. 3 E,E, E,E-1,3-bis[(4'-(amino(imino)methyl)phenyl)methylene]-2-oxocyclohexane, phosphate]	5650 ± 350	2970 ± 480			
N=C(N)c1ccc(/C=C2/CCC/C(=C\c3ccc(C(=N)N)cc3)C2=O)cc1 [EX. 4 Z,E, Z,E-1,3-bis[(4'-(amino(imino)methyl)phenyl)methylene]-2-oxocyclohexane, trifluoroacetate]	422 ± 167	115 ± 71			
N=C(N)c1ccc(C=C2CCCCC(=Cc3ccc(C(N)=O)cc3)C2=O)cc1 [EX. 6 Z,E:E,Z, Z,E/E,Z-1-(4'-(amino(imino)methyl)phenyl)methylene-3-(4'-(aminocarbonyl)phenyl)-methylene-2-oxocycloheptane, trifluoroacetate]	1850 ± 10	380			
N=C(N)c1ccc(/C=C2/CCCC/C(=C/c3ccc(C(N)=O)cc3)C2=O)cc1 [EX. 6 Z,Z, Z,Z-1-(4'-(amino(imino)methyl)phenyl)methylene-3-(4'-(aminocarbonyl)phenyl)-methylene-2-oxocycloheptane, trifluoroacetate]	52.1 ± 2.5	107 ± 2			
CNC(=N)c1ccc(/C=C2\CCCC/C(=C\c3ccc(C(=N)N)cc3)C2=O)cc1 [EX. 7 E,E, E,E-1-(4'-(amino(imino)methyl)phenyl)methylene-3-(4'-(N'-methylamino-(imino)methyl)phenyl)methylene-2-oxocycloheptane, hydrochloride]	29000	12900			
CNC(=N)c1ccc(C=C2CCCCC(=Cc3ccc(C(=N)N)cc3)C2=O)cc1 [EX. 8 Z,E:E,Z, Z,E/E,Z-1-(4'-(amino(imino)methyl)phenyl)methylene-3-(4'-(N'-methylamino (imino)methyl)phenyl)methylene-2-oxocycloheptane, trifluoroacetate]	504 ± 44	363 ± 19			
C/N=C(\N)c1ccc(/C=C2/CCCC/C(=C/c3ccc(C(=N)N)cc3)C2=O)cc1 [EX. 8 Z,Z, Z,Z-1-(4'-(amino(imino)methyl)phenyl)methylene-3-(4'-(N'-methylamino-(imino)methyl)phenyl)methylene-2-oxocycloheptane, trifluoroacetate]	12.3 ± 1.8	1580 ± 290			
N=C(N)c1cccc(/C=C2\CCCC/C(=C\c3cccc(C(=N)N)c3)C2=O)c1 [EX. 12 E,E, E,E-1,3-bis[(3'-(amino(imino)methyl)phenyl)methylene]-2-oxocycloheptane, dihydrochloride]	1390 ± 210	2140 ± 150			
N=C(N)c1cccc(/C=C2/CCCC/C(=C/c3cccc(C(=N)N)c3)C2=O)c1 [EX. 13 Z,Z, Z,Z-1,3-bis[(3'-(amino(imino)methyl)phenyl)methylene]-2-oxocycloheptane, trifluoroacetate]	5.63 ± 1.97	1360 ± 500			
N=C(N)c1ccc(/C=C2/CCCCCCC/C(=C\c3ccc(C(=N)N)cc3)C2=O)cc1 [EX. 14 Z,E]	509 ± 26	146 ± 27			
N=C(N)c1ccc(/C=C2/CCCCCC/C(=C/c3ccc(C(=N)N)cc3)C2=O)cc1 [EX. 16 Z,Z, Z,Z-1,3-bis[(4'-(amino(imino)methyl)phenyl)methylene]-2-oxocyclononane]	6 ± 2.8	527 ± 52			
